Experimental data as given in patent US12396988B2, “Methods of using muscarinic antagonists in the treatment of depression” (BOARD OF REGENTS, THE UNIVERSITY OF TEXAS SYSTEM, priority 2019, dated 2025).
Entries after “also recorded” stand apart in the source; their conditions may differ. Where a name gives a salt, the structure may show the parent alone.

Key:
[1] = tested on: humans; conditions: cited from earlier work
[2] = tested on: rats; conditions: cited from earlier work
[3] = tested on: rats; experiment: Cognitive evaluation: delayed-matching-to-sample (DMTS) touch-screen task, short-term memory; type: in vivo; conditions: doses 0.1-3.2 mg/kg, FIG. 5 left panel
Description: In cognitive evaluation tests, rats are exposed to a touch screen procedure that evaluates memory (delayed matching to sample, DMTS) and attention (psychomotor vigilance). In the DTMS, a commonly used recognition task to test short-term memory, the subject (a rat) is presented with a sample stimulus. In our procedure, when the rats touch the sample stimulus it terminates on the screen. After a pre-set delay two comparison stimuli appear. A touch response on the comparison stimulus that matches some physical property of the sample stimulus (i.e. color) results in reward delivery. Touching the incorrect comparison stimulus results in a timeout. Accuracy is then plotted vs different delay values to determine a “forgetting function”. This same procedure has been used by many others to assess the deleterious effects of various classes of psychoactive drugs.
(§1) Additional tests involved a novel touch-screen procedure that evaluated memory (delayed-matching-to-sample, DMTS) and attention (psychomotor vigilance, PVT).
In the DMTS, a commonly used recognition task to test short-term memory, rats were presented with a sample stimulus. When the rats touched the sample stimulus, it terminated on the screen. After a pre-set delay, two comparison stimuli appeared. […] Accuracy was then plotted vs. different delay values to determine a “forgetting function.”

[4] = tested on: rats; experiment: Forced swim test (FST); type: in vivo; conditions: 3 mg/kg, 30 min before a 15-min swim, FIG. 4
Method: In the FST, the rats are injected with a test compound and 30 minutes later placed individually in a cylindrical container filled with water at room temperature. The rat's behavior is videotaped from above and is later scored by a trained observed who is blind to the drug conditions. Behavior is classified every 5 seconds over the 15 minute swim period as the following: immobility the rat is hanging quietly in the water, making only enough movement to keep its nose out of the water; swimming moving limbs in an active manner, climbing or actively moving its forepaws against the side of the chamber.
Rats of both sexes as well as rats from the Flinders straw were used for forced swim tests. The rats were injected with a saline control or CJ2100 (0.1 mg/kg, 0.3 mg/kg, 1 mg/kg, or 3 mg/kg) and 30 min later placed individually a cylindrical container (46 cm tall×20 cm, diameter) filled to 30 cm with 25° C. water for a single 15-min forced swim test. Rat behavior was videotaped from above and later scored by a trained observer who was blind to the drug conditions. Behavior was classified every 5 seconds over the 15 minute swim period as following: immobility rat was hanging quietly in the water, making only enough movement to keep its nose out of the water; swimming moving limbs in an active manner, climbing, or actively moving its forepaws against the side of the chamber. […]

[5] = molecular target: T1, M2 receptor (Rattus norvegicus, UniProt P10980); experiment: Cardiovascular assay (bradycardia test): antagonism of arecoline-induced bradycardia, telemetry; type: in vivo; conditions: 1 mg/kg test compound s.c. before 10 mg/kg arecoline s.c., rats, FIG. 1
T1 construct: To measure changes in heart rate and mean arterial pressure, rats were implanted with telemetric transmitters; from tissue; host or cells: intact living rats (cardiovascular system, telemetry)
T1 sequence (P10980 1-466): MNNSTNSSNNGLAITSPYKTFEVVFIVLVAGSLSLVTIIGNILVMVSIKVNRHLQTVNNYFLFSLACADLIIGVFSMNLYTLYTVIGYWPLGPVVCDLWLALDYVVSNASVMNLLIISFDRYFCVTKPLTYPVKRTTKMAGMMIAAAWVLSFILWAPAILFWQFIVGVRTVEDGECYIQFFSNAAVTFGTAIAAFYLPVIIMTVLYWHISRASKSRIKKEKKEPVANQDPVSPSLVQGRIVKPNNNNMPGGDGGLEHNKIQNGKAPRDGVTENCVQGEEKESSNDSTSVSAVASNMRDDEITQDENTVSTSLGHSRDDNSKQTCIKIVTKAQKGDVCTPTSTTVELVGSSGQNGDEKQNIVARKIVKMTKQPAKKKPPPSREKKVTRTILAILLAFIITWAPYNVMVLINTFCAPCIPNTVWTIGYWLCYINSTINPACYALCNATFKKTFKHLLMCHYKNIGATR
Description: All rats continued to have free access to food and water at all times.

[6] = tested on: rats; experiment: Drug discrimination test (arecoline vs saline; discriminative stimulus and rate-decreasing effects of arecoline); type: in vivo, Sprague-Dawley rats; conditions: 1.0 mg/kg CJ2100, rats, FIG. 2
Description: Rats are initially trained to nose-poke 10 times in any aperture to receive a dipper of Ensure (fixed ratio 10 FR-10 schedule of reinforcement). Nose-poke biases are noted, and the following assignments are made for the 2-nose-poke condition: 1) approximately half of the rats in each group will have the drug-associated aperture on the left, and the remaining rats will have the drug-associated aperture on the right; 2) the drug-associated aperture is assigned to the non-preferred side in half of the rats.
During training, the rats are injected with saline or their training drug and immediately placed in the chamber for a 5-min blackout, followed by a 20-min response period. […]
When these criteria have been met on 3 consecutive days, testing can begin. […] When the effects of putative antagonists are to be evaluated, these drugs are given 15 min before the start of the session, and the training drug is injected immediately before the rat is placed in the chamber. […]
Data analysis: Full generalization to a test compound is defined as >85% responding on the drug-appropriate aperture, and completing at least one ratio. Discrimination data are expressed as the percent responses on the drug-appropriate aperture, out of the total number of responses made in both apertures. Rates of responding are calculated as well: total number of responses/time during the light-on parts of the session. […]

[7] = tested on: rats; experiment: Cognitive evaluation: psychomotor vigilance (PVT) touch-screen task, attention; type: in vivo; conditions: doses 0.1-10 mg/kg, FIG. 5 right panel
Description: Psychomotor vigilance is used to evaluate drug effects of attention and vigilance over a period of time. Championed by David Dinges of U. Penn School of Medicine, it is a reaction timed task to measure the speed with which subjects responds to a visual stimulus. In the task, stimuli of varying intensity are presented to a subject (a rat) in randomized location on the screen following unpredictable intervals. The reaction time of the rat to the stimuli will provide a reliable attention threshold in each individual subject. Attention will decrease over time which serves as a baseline for degradation of sustained vigilance. For these studies, a stimulus is presented on a screen in a random location following a variable time interval (5, 15, 30 seconds). Duration of presentation of the stimulus is 2 seconds on first trial. If the correct stimulus is touched by the rat within 2 seconds, a mild reward is delivered and duration of stimulus presentation is […] by 0.25 seconds for subsequent trials (across 500 trials).
as §1
Psychomotor vigilance (PVT) is used to evaluate drug effects on attention and vigilance over a period of time. Championed by David Dinges of U. Penn. […]

[8] = 1.0 mg/kg scopolamine (Winger et al. 2020)

Compound	Cognitive side effects [1]	Anti-depressant effect in humans ([1]; oral and intravenous treatment)	Effect on the discriminative stimulus of arecoline [2, 8]	Effect on the rate-modifying effects of arecoline [2, 8]	Ability to modify the discriminative stimulus effects of arecoline ([2]; compared with CJ2100)	Ability to modify the rate-suppressing effects of arecoline ([2]; compared with CJ2100)	Effect on ability of the rats to respond in DMTS task (cognitive effect) [3]	Mean duration of short term memory (DMTS) [3]	Immobility in forced swim test [4]	Swimming in forced swim test [4]	Effect on arecoline-induced bradycardia [5]	Shift to the right in the discriminative stimulus effects of arecoline [6] [log unit]	Effect on ability of the rats to respond in PVT task (cognitive effect) [7]	Mean titration duration of the stimulus (PVT) [7]
CN1[C@@H]2C[C@@H](OC(=O)[C@H](CO)c3ccccc3)C[C@H]1[C@@H]1O[C@@H]12 [scopolamine]	severe cognitive deficits; also recorded: cognitive impairment including memory disturbances	rapid anti-depressant effects	without affecting the discriminative stimulus of arecoline	appeared to increase the rate-modifying effects of arecoline	much less able than CJ2100 to modify	much less able than CJ2100 to modify	–	–	–	–	–	–	–	–
CN1CCC=C(c2nc(C3CC3)no2)C1 [CJ2100, 3-(3-alkyl-1,2,4-oxadiazol-5-yl)-1,2,5,6-tetrahydro-1-methylpylidine oxalate]	–	–	–	–	–	–	did not modify the ability of the rats to respond; also recorded: silent	approximately 7 sec	decrease in immobility	significant increase in swimming	attenuates this effect; also recorded: complete attenuation of this effect	~1	did not modify the ability of the rats to respond; also recorded: silent	approximately 2 sec
